Reference: ChEMBL document CHEMBL4619806, “Screening of a Custom-Designed Acid Fragment Library Identifies 1-Phenylpyrroles and 1-Phenylpyrrolidines as Inhibitors of Notum Carboxylesterase Activity” (J Med Chem, 2020)
≈ marks a conversion by molar mass, not a printed value.

Columns and labels:
[1] = target: T1, Palmitoleoyl-protein carboxylesterase NOTUM (Homo sapiens, UniProt Q6P988, C330S); assay: Inhibition of human Notum (S81 to T451 residues) Cys330Ser mutant expressed in HEK293S GnTI cells using OPTS as substrate incubated for 40 mins by fluorescence based assay
[2] = target: T1, Palmitoleoyl-protein carboxylesterase NOTUM; assay: Inhibition of human Notum (S81 to T451 residues) Cys330Ser mutant expressed in HEK293S GnTI cells at 100 uM using OPTS as substrate incubated for 40 mins by fluorescence based assay relative to control
[3] = Chromatographic hydrophobicity index, log D of the compound at pH 7.4; assay type: physicochemical; settings: buffer
[4] = Aqueous solubility at pH 7.4; assay type: physicochemical; settings: buffer
[5] = Intrinsic clearance in mouse liver microsomes at 1 uM measured up to 60 mins in presence of NADPH by LC-MS/MS analysis; assay type: ADME, Microsome; settings: read-out: CLH
[6] = Apparent permeability from apical to basolateral side in MDCK2-MDR1 cells at 10 uM measured up to 120 mins by LC-MS/MS analysis; assay type: ADME, cell-based, Canis lupus familiaris; settings: dog, MDCK-MDR1
[7] = Apparent permeability from basolateral to apical side in MDCK2-MDR1 cells at 10 uM measured up to 120 mins by LC-MS/MS analysis; assay type: ADME, cell-based, Canis lupus familiaris; settings: dog, MDCK-MDR1
[8] = Efflux ratio of apparent permeability in MDCK2-MDR1 cells at 10 uM measured up to 120 mins by LC-MS/MS analysis; assay type: ADME, cell-based, Canis lupus familiaris; settings: dog, MDCK-MDR1

T1 sequence (Q6P988 20-496 C330S limits assumed): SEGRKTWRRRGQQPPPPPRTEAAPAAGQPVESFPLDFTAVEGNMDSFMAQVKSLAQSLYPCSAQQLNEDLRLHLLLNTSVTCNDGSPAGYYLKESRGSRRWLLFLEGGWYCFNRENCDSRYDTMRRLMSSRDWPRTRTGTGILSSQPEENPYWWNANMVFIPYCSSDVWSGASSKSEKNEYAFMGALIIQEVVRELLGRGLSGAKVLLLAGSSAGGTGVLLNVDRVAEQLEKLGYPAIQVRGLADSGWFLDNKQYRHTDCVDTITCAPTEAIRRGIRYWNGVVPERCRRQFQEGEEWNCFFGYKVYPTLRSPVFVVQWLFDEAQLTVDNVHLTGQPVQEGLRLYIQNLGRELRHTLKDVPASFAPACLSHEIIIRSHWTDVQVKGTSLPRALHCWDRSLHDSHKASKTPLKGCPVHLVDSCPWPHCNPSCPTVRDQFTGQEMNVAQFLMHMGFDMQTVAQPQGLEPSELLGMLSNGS

SMILES | IC50 [1] | also measured
Cc1cc(C(=O)O)c(C)n1-c1ccccc1 | 1.7 µM | –
Cc1cc(C(=O)O)c(C)n1Cc1ccccc1 | 14 µM | –
Cc1cc(C(=O)O)c(C)n1C1CC1 | 6.3 µM | –
Cc1cc(C(=O)O)c(C)n1-c1ccc(F)cc1 | 1.9 µM | –
Cc1ccc(-n2c(C)cc(C(=O)O)c2C)cc1 | 2 µM | –
Cc1cc(C(=O)O)c[nH]1 | 100 µM | inhibition at 100 µM [2]: 50%
COc1cccc(-n2c(C)cc(C(=O)O)c2C)c1 | 1.5 µM | –
COc1c(Cl)cccc1-n1c(C)cc(C(=O)O)c1C | 0.8 µM | –
O=C(C1CCN(c2ccc(Cl)c(C(F)(F)F)c2)C1)N1CCCC1 (configuration not stated) | 0.41 µM | –
COCCNC(=O)C1CCN(c2ccc(Cl)c(C(F)(F)F)c2)C1 (configuration not stated) | 3.5 µM | –
Cc1cccc(-n2c(C)cc(C(=O)O)c2C)c1 | 1.5 µM | –
Cc1cc(C(=O)O)c(C)n1-c1cccc(C(C)C)c1 | 0.36 µM | –
CN1CN(C(=O)C2CCN(c3ccc(Cl)c(C(F)(F)F)c3)C2)CC1=O (configuration not stated) | 1.4 µM | –
Cc1cc(C(=O)O)c(C)n1-c1cccc(F)c1 | 1.5 µM | –
CN1CCN(C(=O)C2CCN(c3ccc(Cl)c(C(F)(F)F)c3)C2)CC1=O (configuration not stated) | 3.1 µM | –
Cc1cc(C(=O)O)c(C)n1-c1cccc(Cl)c1F | 0.38 µM | –
Cc1cc(C(=O)O)c(C)n1-c1cccc(Cl)c1C#N | 2 µM | –
Cc1[nH]ccc1C(=O)O | > 100 µM | inhibition at 100 µM [2]: < 20%
Cc1cc(C(=O)O)c(C)n1C | > 100 µM | inhibition at 100 µM [2]: 20 to 40%
O=C(C1CCN(c2ccc(Cl)c(C(F)(F)F)c2)C1)N1CCOCC1 (configuration not stated) | 9.7 µM | –
O=C(O)[C@H]1CCN(c2ccc(Cl)c(C(F)(F)F)c2)C1 | – | chromatographic logD [3]: 1.5; solubility [4]: > 595 µM; microsomal CLint at 1 µM [5]: 2.5 µL/min/mg; Papp A→B at 2 h, 10 µM [6]: 39 ×10⁻⁶ cm/s; Papp B→A at 2 h, 10 µM [7]: 43 ×10⁻⁶ cm/s

SMILES | IC50 [1] | also measured
Cc1cc(C(=O)O)c(C)n1-c1cccc(C(F)(F)F)c1 | 1.5 µM | –
Cc1cc(C(=O)O)c(C)n1-c1c(Cl)cccc1Cl | 2.3 µM | –
Cc1cc(C(=O)O)c(C)n1-c1cccc(C2CC2)c1 | 0.58 µM | –
O=C(O)c1c[nH]c(C(F)(F)F)c1 | > 100 µM | inhibition at 100 µM [2]: < 20%
Cc1cc(C(=O)O)c(C)n1-c1cccc(C2CC2)c1F | 0.2 µM | –
Cc1c(C(=O)O)cc(C(F)(F)F)n1Cc1ccccc1 | > 100 µM | inhibition at 100 µM [2]: 20 to 40%
Cc1cc(C(=O)O)c(C)n1-c1cc(Cl)ccc1Cl | 1.7 µM | –
CCOc1cccc(-n2c(C)cc(C(=O)O)c2C)c1 | 0.64 µM | –
CNC(=O)C1CCN(c2ccc(Cl)c(C(F)(F)F)c2)C1 (configuration not stated) | 1.3 µM | –
Cc1c(C(=O)O)ccn1Cc1ccccc1 | 3.1 µM | –
O=C(O)C1CCN(c2cccc(C(F)(F)F)c2F)C1 (configuration not stated) | 6.8 µM | –
Cc1cc(C(=O)O)c(C)n1-c1cc(Cl)cc(Cl)c1 | 0.85 µM | –
O=c1[nH]nc(C2CCN(c3ccc(Cl)c(C(F)(F)F)c3)C2)o1 (configuration not stated) | 4.2 µM | chromatographic logD [3]: 3.5; solubility [4]: 69 µM (≈ 23 µg/mL); microsomal CLint at 1 µM [5]: 10 µL/min/mg; Papp A→B at 2 h, 10 µM [6]: 13 ×10⁻⁶ cm/s; Papp B→A at 2 h, 10 µM [7]: 19 ×10⁻⁶ cm/s; efflux ratio at 2 h, 10 µM [8]: 1.5
O=C(Nc1ccccc1)C1CCN(c2ccc(Cl)c(C(F)(F)F)c2)C1 (configuration not stated) | 1 µM | –
Cc1cc(C(=O)O)c(C)n1-c1cccc(C#N)c1 | 3.1 µM | –
O=C(C1CCN(c2ccc(Cl)c(C(F)(F)F)c2)C1)N1CC(F)(F)C1 (configuration not stated) | 0.26 µM | chromatographic logD [3]: 4; solubility [4]: 19 µM (≈ 7.01 µg/mL); microsomal CLint at 1 µM [5]: 21 µL/min/mg; Papp A→B at 2 h, 10 µM [6]: 8 ×10⁻⁶ cm/s; Papp B→A at 2 h, 10 µM [7]: 10 ×10⁻⁶ cm/s; efflux ratio at 2 h, 10 µM [8]: 1.2
Cc1cc(C(=O)O)c(C)n1-c1ccc(C(F)(F)F)c(Cl)c1 | 1.5 µM | –
Cc1[nH]c(C(F)(F)F)cc1C(=O)O | 6.7 µM | –
Cc1cc(C(=O)O)c(C)n1-c1ccccc1F | 3.3 µM | –
O=C(O)C1CCN(c2ccccc2Cl)C1 (configuration not stated) | 19 µM | –
Cc1cc(C(=O)O)c(C)n1-c1ccc(Cl)c(Cl)c1 | 0.27 µM | –

SMILES | IC50 [1] | also measured
Cc1cc(C(=O)O)c(C)n1-c1cccc(C(C)(C)C)c1 | 0.46 µM | –
Cc1cc(C(=O)O)c(C)n1-c1cccc(Cl)c1 | 0.43 µM | –
Cc1cc(C(=O)O)c(C)[nH]1 | > 100 µM | inhibition at 100 µM [2]: < 20%
CN(C)C(=O)C1CCN(c2ccc(Cl)c(C(F)(F)F)c2)C1 (configuration not stated) | 1.2 µM | –
Cc1cc(C(=O)O)c(C)n1-c1ccc(Cl)cc1Cl | 0.43 µM | –
Cc1c(C(=O)O)ccn1-c1ccccc1 | 3.8 µM | –
O=C(C1CCN(c2ccc(Cl)c(C(F)(F)F)c2)C1)N1CC2COCC2C1 (configuration not stated) | 3.1 µM | –
Cc1c[nH]c(C)c1C(=O)O | 100 µM | inhibition at 100 µM [2]: 50%
Cc1cc(C(=O)O)c(C)n1-c1cccc(C#N)c1F | 0.63 µM | –
Cc1ccccc1-n1c(C)cc(C(=O)O)c1C | 2.2 µM | –
Cc1cc(C(=O)O)c(C)n1-c1ccccc1Cl | 2.3 µM | –
Cc1cc(C(=O)O)c(C)n1-c1cccc(C(C)C)c1F | 0.15 µM | chromatographic logD [3]: 3.1; solubility [4]: 51 µM (≈ 14 µg/mL); microsomal CLint at 1 µM [5]: 52 µL/min/mg; Papp A→B at 2 h, 10 µM [6]: 46 ×10⁻⁶ cm/s; Papp B→A at 2 h, 10 µM [7]: 43 ×10⁻⁶ cm/s; efflux ratio at 2 h, 10 µM [8]: 0.93
Cc1cc(C(=O)O)c(C)n1-c1cccc(Cl)c1Cl | 0.22 µM | –
Cc1cc(C(=O)O)c(C)n1-c1ccc(Cl)c(C(F)(F)F)c1 | 2.1 µM | –
Cc1cc(C(=O)O)c(C)n1CC1CC1 | 12.7 µM | –
O=C(O)C1CCN(c2ccccc2F)C1 (configuration not stated) | 11 to 11.3 µM | –
Cc1c(C(=O)O)cc(C(F)(F)F)n1-c1ccccc1 | 22 µM | –
Cc1cc(C(=O)O)c(C)n1-c1ccc(Cl)cc1 | 0.86 µM | –
FC(F)(F)c1cc(N2CCC(c3nnco3)C2)ccc1Cl (configuration not stated) | 24 µM | –
Cc1c[nH]cc1C(=O)O | 100 µM | inhibition at 100 µM [2]: 50%
O=C(O)c1cc[nH]c1 | > 100 µM | inhibition at 100 µM [2]: < 20%

SMILES | IC50 [1] | also measured
Cc1cccc(N2CCC(C(=O)O)C2)c1 (racemic) | 49 µM | –
O=C(O)C1CCN(c2ccc(F)cc2)C1 (racemic) | 15 µM | –
O=C(O)C1CCN(c2cccc(C(F)(F)F)c2)C1 (racemic) | 11 µM | –
O=C(O)C1CCN(c2cc(Cl)ccc2Cl)C1 (racemic) | 7.9 µM | –
O=C(O)C1CCN(c2ccc(Cl)c(Cl)c2Cl)C1 (racemic) | 0.6 µM | –
O=C(O)C1CCN(c2cccc(OC(F)(F)F)c2)C1 (racemic) | 63 µM | –
O=C(O)C1CCN(c2cc(Cl)cc(Cl)c2)C1 (racemic) | 11 µM | –
O=C(O)C1CCN(c2cccc(Cl)c2)C1 (racemic) | 14 µM | –
O=C(O)C1CCN(c2ccc(Cl)cc2)C1 (racemic) | 19 µM | –
O=C(O)C1CCN(c2cccc(Cl)c2Cl)C1 (racemic) | 8 µM | –
O=C(O)C1CCN(c2ccc(F)c(C(F)(F)F)c2)C1 (racemic) | 2.5 µM | –
N#Cc1cccc(N2CCC(C(=O)O)C2)c1 (racemic) | 42 µM | –
O=C(O)C1CCN(c2c(Cl)cccc2Cl)C1 (racemic) | 26 µM | –
O=C(O)C1CCN(c2ccc(Cl)c(Cl)c2)C1 (racemic) | 1.2 µM | –
O=C(O)C1CCN(c2ccc(C(F)(F)F)cc2)C1 (racemic) | 50 µM | –
O=C(O)C1CCN(c2ccc(C(F)(F)F)c(Cl)c2)C1 (racemic) | 8.5 µM | –
CC(C)c1cccc(N2CCC(C(=O)O)C2)c1 (racemic) | 57 µM | –
O=C(O)C1CCN(c2ccc(Cl)cc2Cl)C1 (racemic) | 10 µM | –
